# Data taken from patent US12576155B2, “Senolytic and antiinflammatory prodrugs and methods of use thereof” (priority 2019, dated 2026).
# Assays:
# [1] = tested on: human senescent fibroblasts induced by different stimuli; test: Cell viability, senescent and non-senescent human embryonic fibroblasts (HEFs); format: cell-based
# Protocol: Human embryonic skin fibroblasts (HEFs) were obtained as previously described. Briefly, human embryonic skin tissues, obtained from aborted tissue with informed patient consent, were minced with forceps and incubated in 1 mg/ml collagenase IV for 1-2 hours at 37° C. After enzyme treatment, cells were collected by centrifugation and resuspended in HEF medium (Dulbecco's modified Eagle's medium (DMEM, Gibco) containing 10% fetal bovine serum (FBS, Ausbian), 1% GlutaMAX (Gibco), 1% Non-Essential Amino Acids (NEAA, Gibco) and 1% penicillin/streptomycin (Gibco). Cells were plated on 10 cm tissue culture dishes and grown in 10% FBS DMEM.
# For replication-induced senescence, cells were passaged until they lost the ability to proliferate and became senescent. NBFs were used as senescent cells after approximately 8-9 passages or 12 population doublings. HEFs were used after approximately 35 passages or 50 population doublings. HUVECs were senescent after approximately 18 passages or 24 population doublings.
# For ionizing radiation-induced senescence, MEFs and HEFs were exposed to 10 Gy of ionizing irradiation in an RS 2000 X-ray Biological Irradiator (Rad Source Technologies, Inc.) at a dose rate of 1.205 Gy/min. The day after irradiation, MEFs or HEFs were passaged at a 1:3 dilution and cultured for another three days. Then these cells were plated to carry out further experiments.
# For etoposide-induced senescence, MEFs were treated with 2 μM etoposide for 20 hours, and HEFs were treated with 10 μM etoposide for 12-18 hours. Three days after treatment, cells were sub-cultured at a 1:3 ratio for 72 hours in a fresh medium before further analysis.
# To test the viability of senescent and non-senescent cells treated with SSK1, cells were stained with a mixture of Hoechst 33342 and propidium iodide (PI) (CA1120, Solarbio) to distinguish living and dead cells. […] The plate was incubated at 4° C. for 30 min and observed on a fluorescence microscope or automatic cell imaging system. Viable cells were quantified using a MD Image Xpress Micro XL (Molecular Devices).
# [2] = tested on: SA-β-gal-positive senescent cells in bleomycin-injured lungs; test: Bleomycin-induced lung injury (lung fibrosis and senescence) mouse model; format: in vivo, mice
# Protocol: All drugs were mixed in 90% PBS, 5% Tween-80 (P1754, Sigma), and 5% polyethylene glycol (PEG) (81172, Sigma) and administered to mice by intraperitoneal (i.p.) injection. For treating bleomycin-injured young mice, SSK1 (0.5 mg/kg) or vehicle were given consecutive two days every week for five weeks. For old mice (20-month-old), SSK1 (0.5 mg/kg), gemcitabine (0.5 mg/kg) or vehicle were administrated for continued 3 days every two weeks. Gemcitabine was purchased from MCE.
# Bleomycin was purchased from Selleck. To induce lung senescence and fibrosis, young male and female mice (3-month-old) were subjected to transtracheal injection of bleomycin (1 mg/kg) as previously reported (Bivas-Benita et al., Eur J Pharm Biopharm 61, 214-218(2005))
# Cultured cells were washed once with PBS and fixed in β-galactosidase staining fix solution for 15 min at room temperature. Cells were then washed three times with PBS and incubated with β-galactosidase staining solution (Beyotime Biotechnology) for 16-20 hours at 37° C. For 12-well plates, 1 ml of β-galactosidase staining solution was added to each well. The plate was sealed with Parafilm to prevent evaporation of the staining medium. After the overnight incubation, cells were washed with PBS and observed under a bright field microscope. For β-galactosidase staining of frozen sections, the frozen sections were dried at 37° C. for 20-30 min and then fixed in β-galactosidase staining fix solution for 15 min at room temperature. The frozen sections were washed three times with PBS and incubated with β-galactosidase staining solution overnight at 37° C. After completion of β-galactosidase staining, the sections were stained with eosin for 1-2 min, rinsed under running water for 1 min, differentiated in 1% acid alcohol for 10-20 sec, and washed again under running water for 1 min. Sections were dehydrated in increasing concentrations of alcohols and cleared in xylene. Excess xylene was drained and a coverslip was placed over the section. After drying, the sample was observed under a microscope.
# Lung, liver, and kidney frozen sections stained with SA-β-Gal were quantified by ImageJ software (NIH) to measure the SA-β-Gal positive area. The total area was quantified by eosin positive area with ImageJ software (NIH). The relative positive SA-β-Gal positive cells were calculated with the SA-β-Gal positive area divided by the total area. Each mouse was measured with 3-5 regions.
# For detecting the p21 expression in lungs, we conducted the immunohistochemical staining experiment for p21 with an immunohistochemical staining kit (SP-9000, ZSGB-BIO). Freshly isolated tissues were fixed by 10% formalin for one day and then transferred in 20% formalin for another day. The tissue blocks were then dehydrated and embedded in paraffin. The embedded tissues were cut and affixed on slides. Before immunohistochemical staining, the slides were deparaffinized, rehydrated, and performed antigen retrieve by high pressure and high temperature in Tris/EDTA pH 8.0 buffer solution. Immunohistochemical staining was conducted according to the manufacturers' instructions.
# Total RNA was isolated using the Direct-zol RNA MiniPrep Kit (Zymo Research, R2072). […] Data were analyzed using the 2^(−ΔΔCt) method. […]
# [3] = tested on: replication-induced senescent mouse embryonic fibroblasts (MEFs) and their non-senescent counterparts; test: SSK1 metabolism analysis (release of gemcitabine, LC-MS/MS); format: in vitro ADME; conditions: 0.5 μM SSK1; senescent vs non-senescent MEFs; FIG. 1A
# Protocol: To detect the release of gemcitabine from SSK1 in senescent and non-senescent cells, the metabolism analysis was performed as previous reported (Karampelas et al., Mol Pharmaceut 14, 674-685(2017)). Briefly, the senescent and non-senescent cells were incubated with 0.5 μM SSK1 in DMEM medium containing 10% FBS and 1% penicillin-streptomycin for the indicated time. Then the cells slightly washed with water for twice and then harvested. Cold methanol used to extract the compounds and samples were prepared after centrifugation. The concentration of gemcitabine was determined by LC-MS/MS analysis.
smiles,measurement,setting,value
CC(=O)OCC1O[C@@H](Oc2ccc(COC(=O)Nc3ccn([C@@H]4O[C@H](CO)C(O)C4(F)F)c(=O)n3)cc2[N+](=O)[O-])C(OC(C)=O)C(OC(C)=O)[C@H]1OC(C)=O (some centres unmarked) [SSK1],Clearance of senescent cells,[1]; senescent HEFs induced by different stresses vs non-senescent counterparts,cleared by SSK1
same,Percentage of cell viability in senescent cell populations,"[1]; vehicle or treated senescent HEFs, FIG. 2F",dose dependent decrease of senescent cells
same,Decline in physical functions (treadmill exhaustion distance),[2]; SSK1 0.5 mg/kg i.p.,attenuated
same,Lung fibrosis,[2]; SSK1 0.5 mg/kg i.p.,attenuated
same,"p21-positive cells and other senescence-associated markers in lungs (immunohistochemistry, RT-qPCR)",[2]; SSK1 0.5 mg/kg i.p.,decreased p21-positive cells and other senescence-associated markers
same,Decrease of SA-β-gal-positive cells in lungs vs vehicle,"[2]; SSK1 0.5 mg/kg i.p., five weeks",3.8 fold
same,β-gal positive macrophages in injured lungs,"[2]; SSK1 0.5 mg/kg, xCell analysis of RNA-seq, FIG. 6C",reduction of β-gal positive macrophages was observed
same,Metabolism of SSK1 into gemcitabine,[3],specifically cleaved to release cytotoxic gemcitabine in senescent cells but not in non-senescent cells
